Assay [1] concerns the target RIPK1 (Homo sapiens (Human), UniProt Q13546). Description: ADP-Glo kinase assay (RIPK1 activity, conversion of ATP to ADP). The assay is classed as biochemical. To be noted: 5 nM RIPK1, 50 μM ATP, 6 h reaction; read-out: RIPK1 Enzyme Avg IC50. Summed up: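 ADP-Glo luminescence of ATP-to-ADP conversion by 5 nM RIPK1 with 50 μM ATP (final), 6 h reaction after 10 min compound preincubation at rt. Buffer was 50 mM HEPES pH 7.5, 30 mM MgCl2, 0.05% BSA, 0.02% CHAPS. IC50 from four-parameter logistic fit.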
A general note: ADP-Glo first removes unused ATP, then detects ADP through luciferase.

Assay [2] relates to human monocytic cell line U937. Kind of assay: Human U937 cellular necroptosis assay (TNFalpha + z-VAD-FMK, Cell Titer-Glo viability). It counts as cell-based. Conditions: Homo sapiens, U-937, 22 h, U937 cells, 25 ng/mL human TNFalpha + 25 μM z-VAD-FMK, read-out: hU937 Avg IC50. Summed up:
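Cells resuspended in phenol red-free RPMI with 10% FBS, stimulated with 25 ng/mL human TNFalpha plus 25 μM z-VAD-FMK, then given serially diluted compound for 22 h at 37° C, 5% CO2. Viability by Cell Titer-Glo 2.0 luminescence; IC50 from four-parameter logistic fit, averaged across runs.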
For orientation: Cellular ATP, detected with luciferase, serves as a proxy for viable cell number.

Structures are written as SMILES.

Sequence of RIPK1 (Q13546 1-327): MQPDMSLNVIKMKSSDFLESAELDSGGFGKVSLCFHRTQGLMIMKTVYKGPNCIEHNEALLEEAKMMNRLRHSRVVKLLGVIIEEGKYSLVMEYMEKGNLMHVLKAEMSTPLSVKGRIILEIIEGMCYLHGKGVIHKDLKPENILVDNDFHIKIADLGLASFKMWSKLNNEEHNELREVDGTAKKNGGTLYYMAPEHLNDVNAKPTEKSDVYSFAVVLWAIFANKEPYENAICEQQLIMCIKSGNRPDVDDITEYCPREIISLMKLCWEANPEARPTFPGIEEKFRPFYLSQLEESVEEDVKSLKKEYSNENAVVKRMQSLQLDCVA

Usually IC50 stands for the concentration that gives 50% inhibition. Turning to `N#Cc1ccc2c(cnn2CC23CC(C(=O)N4N=CCC4c4cc(F)cc(F)c4)(C2)C3)c1` (stereo not shown) [Example 64, 1-((3-(5-(3,5-difluorophenyl)-4,5-dihydro-1H-pyrazole-1-carbonyl)bicyclo[1.1.1]-pentan-1-yl)methyl)-1H-indazole-5-carbonitrile], the IC50 is 10 nM in assay [1] and 7 nM in assay [2].

With `N#Cc1ccnc(OCC23CC(C(=O)N4CC(F)CC4c4cccc(F)c4)(C2)C3)c1` (stereo not shown) [Example 26, 2-((3-(4-Fluoro-2-(3-fluorophenyl)pyrrolidine-1-carbonyl)-bicyclo[1.1.1]pentan-1-yl)methoxy)isonicotinonitrile], the IC50 in assay [1] was determined as 59 nM; in assay [2], 472 nM.

For the compound `N#Cc1cccc(C2CC=NN2C(=O)C23CC(Cn4cc(C#N)cn4)(C2)C3)c1` (stereo not shown) [Example 137, 1-((3-(5-(3-cyanophenyl)-4,5-dihydro-1H-pyrazole-1-carbonyl)bicyclo[1.1.1]-pentan-1-yl)methyl)-1H-pyrazole-4-carbonitrile], the IC50 in assay [1] worked out at 379 nM; in assay [2], 2690 nM.

Take `N#Cc1ccc(OCC23CC(C(=O)N4N=CCC4c4cc(F)cc(F)c4)(C2)C3)c(Cl)c1` (stereo not shown) [Example 202, 3-Chloro-4-((3-(5-(3,5-difluorophenyl)-4,5-dihydro-1H-pyrazole-1-carbonyl)bicyclo[1.1.1]pentan-1-yl)methoxy)benzonitrile]: the IC50 in assay [1] is 32 nM; in assay [2], 18 nM.

Regarding `O=C(N1N=CCC1c1cc(F)cc(F)c1)C12CC(Cn3ccn4nccc34)(C1)C2` (stereo not shown) [Example 158, (3-((1H-imidazo[1,2-b]-pyrazol-1-yl)methyl)-bicyclo[1.1.1]pentan-1-yl)(5-(3,5-difluorophenyl)-4,5-dihydro-1H-pyrazol-1-yl)methanone], the values for the IC50 in assay [1] and in assay [2] were 24 nM and 62 nM, respectively.

`O=C(N1N=CCC1c1cc(F)cc(F)c1)C12CC(Cn3ncc4ccc(F)cc43)(C1)C2` (stereo not shown) [Example 70, (5-(3,5-difluorophenyl)-4,5-dihydro-1H-pyrazol-1-yl)(3-((6-fluoro-1H-indazol-1-yl)-methyl)bicyclo[1.1.1]pentan-1-yl)methanone]: the IC50 in assay [1] is 34 nM; in assay [2] it was 26 nM.

For the compound `O=C(N1N=CCC1c1cc(F)cc(F)c1)C12CC(C(O)c3cccc(Cl)c3)(C1)C2` (stereo not shown) [Example 230, (3((3-chlorophenyl)-(hydroxy)methyl)bicyclo-[1.1.1]pentan-1-yl)(5-(3,5-difluorophenyl)-4,5-dihydro-1H-pyrazol-1-yl)methanone], the IC50 in assay [1] is 93 nM; in assay [2] it was 407 nM.

For `O=C(N1N=CCC1c1cc(F)cc(F)c1)C12CC(Cn3ncc4ccncc43)(C1)C2` (stereo not shown) [Example 87, (3-((1H-pyrazolo[3,4-c]-pyridin-1-yl)methyl)bicyclo-[1.1.1]pentan-1-yl)(5-(3,5-difluorophenyl)-4,5-dihydro-1H-pyrazol-1-yl)methanone], the half-maximal inhibitory concentration (IC50) in assay [1] is 21 nM; in assay [2], 33 nM.

`O=C(N1N=CCC1c1cc(F)cc(F)c1)C12CC(Cn3cc(C4CC4)nn3)(C1)C2` (stereo not shown) [Example 159, (3-((4-cyclopropyl-1H-1,2,3-triazol-1-yl)methyl)bicyclo-[1.1.1]pentan-1-yl)(5-(3,5-difluorophenyl)-4,5-dihydro-1H-pyrazol-1-yl)methanone]: the IC50 worked out at 1120 nM in assay [1] and 3610 nM in assay [2].

On to `N#Cc1ccc2c(cnn2CC23CC(C(=O)N4CC(F)CC4c4cccc(F)c4)(C2)C3)c1` (stereo not shown) [Example 176, 1-((3-(4-fluoro-2-(3-fluoro-phenyl)pyrrolidine-1-carbonyl)bicyclo[1.1.1]-pentan-1-yl)methyl)-1H-indazole-5-carbonitrile], for which the IC50 in assay [1] stood at 19 nM; in assay [2], 87 nM.

Regarding `N#Cc1ccc2c(cnn2CC23CC(C(=O)N4N=CC[C@H]4c4cc(F)cc(F)c4)(C2)C3)c1` [Example 253, (S)-1-((3-(5-(3,5-difluoro-phenyl)-4,5-dihydro-1H-pyrazole-1-carbonyl)bicyclo-[1.1.1]pentan-1-yl)methyl)-1H-indazole-5-carbonitrile], the IC50 came to 51 nM in assay [1] and 479 nM in assay [2].
